Reference: ChEMBL document CHEMBL1811807, “Evaluation of influence of Ap4A analogues on Fhit-positive HEK293T cells; cytotoxicity and ability to induce apoptosis” (Bioorg Med Chem, 2011)
Activity calls are given as the source filed them. No cut-off for these calls is given here.

Legend:
[1] = Stability in medium collected from human HEK293T cells assessed as compound degradation level at 1 mM incubated up to 48 hrs at 37 degC; type: ADME, cell-based, HEK-293T; settings: read-out: Activity
[2] = Stability in medium collected from human HEK293T cells assessed as intact compound level at 1 mM incubated up to 48 hrs at 37 degC; type: ADME, cell-based, HEK-293T; settings: read-out: Stability
[3] = Stability in HEK293T cellular extract assessed as compound degradation level at 1 mM incubated after 48 hrs at 37 degC; type: ADME, HEK-293T; settings: human, read-out: Activity
[4] = Drug uptake in Fhit-positive HEK293T cells at 7.5 uM after 24 hrs using fluorescein labeled compound; type: ADME, cell-based; settings: human, hek-293t
[5] = Drug uptake in Fhit-positive HEK293T cells Vesicular structures compartment at 7.5 uM after 24 hrs using fluorescein labeled compound; type: ADME, cell-based; settings: human, hek-293t
[6] = Drug uptake in Fhit-positive HEK293T cells cytoplasmic compartment at 7.5 uM after 24 hrs using fluorescein labeled compound; type: ADME, cell-based; settings: human, hek-293t
[7] = molecular target: Bis(5'-adenosyl)-triphosphatase (Homo sapiens, UniProt P49789); assay: Inhibition of Fragile histidine triad protein hydrolytic activity
Chain of Bis(5'-adenosyl)-triphosphatase (P49789 whole entry): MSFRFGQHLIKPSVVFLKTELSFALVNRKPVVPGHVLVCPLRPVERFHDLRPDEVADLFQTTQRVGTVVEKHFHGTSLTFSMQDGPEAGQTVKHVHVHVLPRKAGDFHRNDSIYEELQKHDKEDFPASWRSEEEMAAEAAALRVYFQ

[8] = tested on: HEK-293T; assay: Cytotoxicity in Fhit-positive HEK293T cells after 72 hrs bu MTT assay; type: functional, cell-based; settings: Homo sapiens
[9] = Stability in human HEK293T cellular extract assessed as intact compound level at 1 mM incubated after 48 hrs at 37 degC; type: ADME, cell-based, HEK-293T; settings: read-out: Stability
[10] = tested on: HEK-293T; assay: Induction of apoptosis in Fhit-positive HEK293T cells assessed as caspase-3 activation at 0.5 to 5 uM after 18 hrs by fluorescent assay; type: functional, Homo sapiens
[11] = tested on: HEK-293T; assay: Induction of apoptosis in Fhit-positive HEK293T cells assessed as caspase-8 activation at 5 uM in presence of Fhit-specific siRNA after 18 hrs by fluorescent assay; type: functional, cell-based; settings: Homo sapiens
[12] = tested on: HeLa; assay: Cytotoxicity in Fhit-negative human HeLa cells after 72 hrs bu MTT assay; type: functional, cell-based
[13] = tested on: HEK-293T; assay: Induction of apoptosis in Fhit-positive HEK293T cells assessed as caspase-3 activation at 5 uM in presence of Fhit-specific siRNA after 18 hrs by fluorescent assay; type: functional, cell-based; settings: Homo sapiens
[14] = tested on: HEK-293T; assay: Induction of apoptosis in Fhit-positive HEK293T cells at 5 uM after 48 hrs by Annexin-V assay (reference value: 3.9 +/- 0.95%); type: functional, Homo sapiens
[15] = tested on: HEK-293T; assay: Induction of apoptosis in Fhit-positive HEK293T cells assessed as caspase-3 activation at 5 to 10 uM after 18 hrs by fluorescent assay; type: functional, cell-based; settings: Homo sapiens
[16] = tested on: HEK-293T; assay: Induction of apoptosis in Fhit-positive HEK293T cells assessed as caspase-3 activation at 5 uM after 18 hrs by fluorescent assay; type: functional, Homo sapiens
[17] = tested on: HEK-293T; assay: Induction of apoptosis in Fhit-positive HEK293T cells assessed as caspase-8 activation at 5 uM after 18 hrs by luminescent assay; type: functional, Homo sapiens
[18] = tested on: HEK-293T; assay: Induction of apoptosis in Fhit-positive HEK293T cells at 20 uM by Annexin-V assay (reference value: 3.9 +/- 0.95%); type: functional, Homo sapiens
[19] = tested on: HEK-293T; assay: Induction of apoptosis in Fhit-positive HEK293T cells assessed as caspase-9 activation at 5 uM after 18 hrs by luminescent assay; type: functional, Homo sapiens
[20] = tested on: HEK-293T; assay: Induction of apoptosis in Fhit-positive HEK293T cells assessed as caspase-3 activation at 0.5 to 1 uM after 18 hrs by fluorescent assay; type: functional, Homo sapiens
[21] = tested on: A549; assay: Cytotoxicity in Fhit-negative human A549 cells after 72 hrs bu MTT assay; type: functional, cell-based; settings: A549, 72 h
[22] = tested on: HEK-293T; assay: Induction of apoptosis in Fhit-positive HEK293T cells at 5 uM after 24 hrs by Annexin-V assay (reference value: 3.9 +/- 0.95%); type: functional, Homo sapiens
[23] = tested on: HL-60; assay: Cytotoxicity in human HL60 cells after 72 hrs bu MTT assay; type: functional, cell-based; settings: HL-60, 72 h

Work on `Nc1ncnc2c1ncn2[C@@H]1O[C@H](COP(=O)(O)OP(=O)(O)OP(=O)(O)OP(=O)(O)OC[C@H]2O[C@@H](n3cnc4c(N)ncnc43)[C@H](O)[C@@H]2O)[C@@H](O)[C@H]1O` [DIADENOSINE TETRAPHOSPHATE] yielded a degraded at 48 h, 1000 µM [1] of 95%, a remaining at 48 h, 1000 µM [2] of 95% and a metabolised at 48 h, 1000 µM [3] of 92.8%.

In the case of `Nc1ncnc2c1ncn2[C@@H]1O[C@H](COP(=O)(S)OCC(O)COP(=O)(S)OCCCCCCNC(=O)c2ccc3c(c2)C2(OC3=O)c3ccc(O)cc3Oc3cc(O)ccc32)[C@@H](O)[C@H]1O` (some centres undefined), the Drug uptake [4] is reported as “Active”, the Drug uptake [5] is reported as “Active” and the Drug uptake [6] is reported as “Active”.

With `Nc1ncnc2c1ncn2[C@@H]1O[C@H](COP(=O)(S)OCC(COP(=O)(S)OC[C@H]2O[C@@H](n3cnc4c(N)ncnc43)[C@H](O)[C@@H]2O)OP(=O)(S)OC[C@H]2O[C@@H](n3cnc4c(N)ncnc43)[C@H](O)[C@@H]2O)[C@@H](O)[C@H]1O` (mixture of isomers) the Ki [7] was 0.035 µM, the IC50 [8] was > 80 µM and the remaining at 48 h, 1000 µM [2] was 97%.

Compound `Nc1ncnc2c1ncn2[C@@H]1O[C@H](COP(=O)(O)OP(=O)(O)OP(=O)(O)OC[C@H]2O[C@@H](n3cnc4c(N)ncnc43)[C@H](O)[C@@H]2O)[C@@H](O)[C@H]1O` has a degraded at 48 h, 1000 µM [1] of 95%, a remaining at 48 h, 1000 µM [2] of 95% and a metabolised at 48 h, 1000 µM [3] of 88.7%.

For `Nc1ncnc2c1ncn2[C@@H]1O[C@H](COP(=O)(S)OCC(COP(=O)(S)OC[C@H]2O[C@@H](n3cnc4c(N)ncnc43)[C@H](O)[C@@H]2O)(COP(=O)(S)OC[C@H]2O[C@@H](n3cnc4c(N)ncnc43)[C@H](O)[C@@H]2O)COP(=O)(S)OC[C@H]2O[C@@H](n3cnc4c(N)ncnc43)[C@H](O)[C@@H]2O)[C@@H](O)[C@H]1O` (mixture of isomers), the Ki [7] was 0.035 µM, the IC50 [8] was > 80 µM and the remaining at 48 h, 1000 µM [2] was 97%.

With `Nc1ncnc2c1ncn2[C@@H]1O[C@H](COP(=O)(S)OCC(COP(=O)(S)OC[C@H]2O[C@@H](n3cnc4c(N)ncnc43)[C@H](O)[C@@H]2O)OP(=O)(O)S)[C@@H](O)[C@H]1O` (mixture of isomers) the Ki [7] was 0.035 µM, the IC50 [8] was > 80 µM and the remaining at 48 h, 1000 µM [2] was 97%.

With `Nc1ncnc2c1ncn2[C@@H]1O[C@H](COP(=O)(S)OCC(COP(=O)(O)S)(COP(=O)(S)OC[C@H]2O[C@@H](n3cnc4c(N)ncnc43)[C@H](O)[C@@H]2O)COP(=O)(S)OC[C@H]2O[C@@H](n3cnc4c(N)ncnc43)[C@H](O)[C@@H]2O)[C@@H](O)[C@H]1O` (mixture of isomers) the Ki [7] was 0.035 µM, the IC50 [8] was > 80 µM and the remaining at 48 h, 1000 µM [2] was 97%.

`Nc1ncnc2c1ncn2[C@@H]1O[C@H](COP(=O)(S)OCC(O)COP(=O)(S)OC[C@H]2O[C@@H](n3cnc4c(N)ncnc43)[C@H](O)[C@@H]2O)[C@@H](O)[C@H]1O` (mixture of isomers) showed a remaining at 48 h, 1000 µM [9] of 90%, a Ki [7] of 0.035 µM and an Activity [10] of 17%. For the same compound, the Activity [11] was “inactive”, the IC50 [12] was > 80 µM and the Activity [13] was “inactive”. The IC50 [8] was 17.5 µM, the Activity [14] was 14.24% and the Activity [15] was “inactive”. It also gave an Activity [16] of 27%, an Activity [17] of 23% and an Activity [18] of 12.27%. For the same compound, the remaining at 48 h, 1000 µM [2] was 97%, the Activity [19] was 21% and the Activity [20] was 10%. For the same compound, the IC50 [21] was > 80 µM, the Activity [22] was 10.5% and the IC50 [23] was 9 µM.
